Species: Rattus norvegicus
Assay: DrugMatrix - Regimen: Daily Repeat
Format: toxicity, organism-based, Sprague-Dawley
Parameters: regimen Daily Repeat, gender Male, age 6-8 weeks
Conditions: in vivo, po, route oral GAVAGE, vehicle 100 % WATER; for ABSOLUTE BASOPHIL / ABSOLUTE EOSINOPHIL / ABSOLUTE LYMPHOCYTE / ABSOLUTE MONOCYTE / ABSOLUTE SEGMENTED NEUTROPHIL / BASOPHIL / EOSINOPHIL / ERYTHROCYTE COUNT / HEMATOCRIT / HEMOGLOBIN / LEUKOCYTE COUNT / LYMPHOCYTE / MEAN CORPUSCULAR HEMOGLOBIN / MEAN CORPUSCULAR HEMOGLOBIN CONCENTRATION / MONOCYTE / NEUTROPHIL / NUCLEATED RED BLOOD CELLS / PLATELET COUNT: tissue Blood; for ALANINE AMINOTRANSFERASE / ALBUMIN / ALKALINE PHOSPHATASE / ASPARTATE AMINOTRANSFERASE / BLOOD UREA NITROGEN / CARBON DIOXIDE / CHLORIDE / CHOLESTEROL / CREATINE PHOSPHOKINASE / CREATININE / GLUCOSE / LACTATE DEHYDROGENASE / LIPASE / PHOSPHORUS / POTASSIUM / SODIUM / TOTAL BILIRUBIN / TOTAL PROTEIN / URIC ACID: tissue Plasma
[1] = 0 mg/kg, 72 h, dose level Control, time 3 day
[2] = 0 mg/kg, 120 h, dose level Control, time 5 day
[3] = 35 mg/kg, 72 h, dose level Low, time 3 day

Nc1ccn([C@@H]2CS[C@H](CO)O2)c(=O)n1 [LAMIVUDINE]
ABSOLUTE BASOPHIL [1]: 0 CELLS/uL | ABSOLUTE EOSINOPHIL [1]: 0 CELLS/uL | ABSOLUTE LYMPHOCYTE [1]: 8482.5 CELLS/uL | ABSOLUTE MONOCYTE [1]: 63.83 CELLS/uL | ABSOLUTE SEGMENTED NEUTROPHIL [1]: 887 CELLS/uL | BASOPHIL [1]: 0% | EOSINOPHIL [1]: 0% | ERYTHROCYTE COUNT [1]: 5.49 x10E6/uL | HEMATOCRIT [1]: 34.5% | HEMOGLOBIN [1]: 13.33 G/DL | LEUKOCYTE COUNT [1]: 9.43 x10E3/uL | LYMPHOCYTE [1]: 90.17% | MEAN CORPUSCULAR HEMOGLOBIN [1]: 24.3 pg | MEAN CORPUSCULAR HEMOGLOBIN CONCENTRATION [1]: 38.63 G/DL | MONOCYTE [1]: 0.67% | NEUTROPHIL [1]: 9.17% | NUCLEATED RED BLOOD CELLS [1]: 0.67 /100WBC | PLATELET COUNT [1]: 1022.83 x10E3/uL | ALANINE AMINOTRANSFERASE [1]: 50.5 u/L | ALBUMIN [1]: 4.08 G/DL | ALKALINE PHOSPHATASE [1]: 368.33 u/L | ASPARTATE AMINOTRANSFERASE [1]: 87.5 u/L | BLOOD UREA NITROGEN [1]: 12.83 mg/dL | CARBON DIOXIDE [1]: 32.83 mmol/L | CHLORIDE [1]: 99.67 MEQ/L | CHOLESTEROL [1]: 79.67 mg/dL | CREATINE PHOSPHOKINASE [1]: 585 u/L | CREATININE [1]: 0.22 mg/dL | GLUCOSE [1]: 135.67 mg/dL | LACTATE DEHYDROGENASE [1]: 171 u/L | LIPASE [1]: 9.5 u/L | PHOSPHORUS [1]: 11.18 mg/dL | POTASSIUM [1]: 6.25 MEQ/L | SODIUM [1]: 144.87 MEQ/L | TOTAL BILIRUBIN [1]: 0.2 mg/dL | TOTAL PROTEIN [1]: 6.08 G/DL | URIC ACID [1]: 0.65 mg/dL | ABSOLUTE BASOPHIL [2]: 0 CELLS/uL | ABSOLUTE EOSINOPHIL [2]: 14.5 CELLS/uL | ABSOLUTE LYMPHOCYTE [2]: 7596.17 CELLS/uL | ABSOLUTE MONOCYTE [2]: 69.67 CELLS/uL | ABSOLUTE SEGMENTED NEUTROPHIL [2]: 503 CELLS/uL | BASOPHIL [2]: 0% | EOSINOPHIL [2]: 0.17% | ERYTHROCYTE COUNT [2]: 5.49 x10E6/uL | HEMATOCRIT [2]: 34.72% | HEMOGLOBIN [2]: 13.47 G/DL | LEUKOCYTE COUNT [2]: 8.18 x10E3/uL | LYMPHOCYTE [2]: 92.17% | MEAN CORPUSCULAR HEMOGLOBIN [2]: 24.57 pg | MEAN CORPUSCULAR HEMOGLOBIN CONCENTRATION [2]: 38.82 G/DL | MONOCYTE [2]: 1% | NEUTROPHIL [2]: 6.67% | NUCLEATED RED BLOOD CELLS [2]: 0 /100WBC | PLATELET COUNT [2]: 1141 x10E3/uL | ALANINE AMINOTRANSFERASE [2]: 48.33 u/L | ALBUMIN [2]: 4.07 G/DL | ALKALINE PHOSPHATASE [2]: 395.67 u/L | ASPARTATE AMINOTRANSFERASE [2]: 85.67 u/L | BLOOD UREA NITROGEN [2]: 15.83 mg/dL | CARBON DIOXIDE [2]: 31.33 mmol/L | CHLORIDE [2]: 100.83 MEQ/L | CREATINE PHOSPHOKINASE [2]: 248.33 u/L | CREATININE [2]: 0.2 mg/dL | GLUCOSE [2]: 135.67 mg/dL | LACTATE DEHYDROGENASE [2]: 141.33 u/L | LIPASE [2]: 9.5 u/L | PHOSPHORUS [2]: 10.73 mg/dL | POTASSIUM [2]: 6.07 MEQ/L | SODIUM [2]: 145.35 MEQ/L | TOTAL BILIRUBIN [2]: 0.22 mg/dL | TOTAL PROTEIN [2]: 6.12 G/DL | URIC ACID [2]: 0.63 mg/dL | ABSOLUTE BASOPHIL [3]: 0 CELLS/uL | ABSOLUTE EOSINOPHIL [3]: 40.67 CELLS/uL | ABSOLUTE LYMPHOCYTE [3]: 11136 CELLS/uL | ABSOLUTE MONOCYTE [3]: 119.67 CELLS/uL | ABSOLUTE SEGMENTED NEUTROPHIL [3]: 470.33 CELLS/uL | BASOPHIL [3]: 0% | EOSINOPHIL [3]: 0.33% | ERYTHROCYTE COUNT [3]: 5.47 x10E6/uL | HEMATOCRIT [3]: 34.33% | HEMOGLOBIN [3]: 13.4 G/DL | LEUKOCYTE COUNT [3]: 11.77 x10E3/uL | LYMPHOCYTE [3]: 94.67% | MEAN CORPUSCULAR HEMOGLOBIN [3]: 24.5 pg | MEAN CORPUSCULAR HEMOGLOBIN CONCENTRATION [3]: 39.03 G/DL | MONOCYTE [3]: 1% | NEUTROPHIL [3]: 4% | NUCLEATED RED BLOOD CELLS [3]: 0 /100WBC | PLATELET COUNT [3]: 1274 x10E3/uL | ALANINE AMINOTRANSFERASE [3]: 51.67 u/L | ALBUMIN [3]: 4.27 G/DL | ALKALINE PHOSPHATASE [3]: 390.33 u/L | ASPARTATE AMINOTRANSFERASE [3]: 80.67 u/L | BLOOD UREA NITROGEN [3]: 12.33 mg/dL | CARBON DIOXIDE [3]: 34.33 mmol/L | CHLORIDE [3]: 98.33 MEQ/L | CHOLESTEROL [3]: 78 mg/dL | CREATINE PHOSPHOKINASE [3]: 237.33 u/L | CREATININE [3]: 0.2 mg/dL | GLUCOSE [3]: 124.67 mg/dL | LACTATE DEHYDROGENASE [3]: 167.33 u/L | LIPASE [3]: 10 u/L | PHOSPHORUS [3]: 10.9 mg/dL | POTASSIUM [3]: 6.42 MEQ/L | SODIUM [3]: 144.2 MEQ/L | TOTAL BILIRUBIN [3]: 0.13 mg/dL | URIC ACID [3]: 0.87 mg/dL

From ChEMBL document CHEMBL3885881, “DrugMatrix”
